Experimental data published in patent publication US11692436B2, “Molecular tracers and modified proppants for monitoring underground fluid flows” (National Technology & Engineering Solutions of Sandia, LLC, priority 2014, dated 2023).

Assay: Elution studies: tracer release from an infused porous proppant pack under constant solvent flow
Type: physicochemical
Details: proppant pack infused with 4
Method: Elution studies: Laboratory experiments designed to mimic fluid flow through hydraulically-fractured zones in a subsurface well that contain a ceramic proppant were conducted. In general, the experimental setup uses a cartridge pump to send the desired solvent fluid (either aqueous or hydrocarbon) at a constant rate through a small “proppant pack” to a fraction collector. The proppant pack consists of porous proppants that have been infused with the metal salen compounds which are packed into a plastic syringe equipped with a fine mesh proppant retention screen at the entrance tip. The pore volume—a measure of the fluid volume within the pack of proppant pellets—is measured. The proppant pack is then sealed at the top with a rubber septum to generate pressure to force the exiting fluid into tubing for transport to the collection test tubes in the fraction collector. Samples were collected over many pore volumes and the concentrations of metal complexes in the samples were measured by either Atomic Absorption Spectrophotometry (AAS) or Raman spectroscopy after the desired number of pore volumes had passed over the proppant pack. […] This retardation of tracer release in the early stage of use is important as it will extend the useful life of the tracer in practical applications, as the total amount of tracer that can be loaded is limited by the porosity of the proppant and solubility of the M-L metal complex.
(iii) Elution data. As mentioned previously, in order for the prepared metal-salen ligand complexes to be useful in tracking fluid flows the infused complexes must elute from the underground proppants upon exposure to the produced fluid, and remain soluble until they are analyzed above-ground. […]
Second, the testing solvent can be either an aqueous salt solution that simulates a formation brine or a long-chain hydrocarbon (such as Isopar L) to mimic the organic products. […] The amount of eluted tracer could also be measured using quantitative Raman spectroscopy. […]

- level of eluted Mg-salen complex (aliquot taken after four pore volumes had been collected (initial phase)): 176 ppb
- level of eluted Mg-salen complex (intermediate sampling at the 20 pore volume mark): 29 ppb
- level of eluted Mg-salen complex (latter stages of testing at the ~40 pore volume mark): 9 ppb
Substance: [(κ^4-(O,N,N′,O′)saloPh-Bu^t)Mg(py)2].tol [Compound 4]
